Laboratory results reported in the NIST ThermoML archive (doi:10.1021/je020149l).

Legend:
[1] = excess molar enthalpy (molar enthalpy of mixing); xn = mol fraction of the nth substance listed; conditions: 323.15 K, 101 kPa, Liquid, Flow calorimetry
[2] = 293.15 K; 101.33 kPa; Liquid; Vibrating tube method

CCCCCCC [heptane] + CCCO
[1]
Conditions | excess molar enthalpy [kcal/mol]
x2 = 0.01 | 0.0963
x2 = 0.024 | 0.142
x2 = 0.034 | 0.161
x2 = 0.053 | 0.188
x2 = 0.103 | 0.229
x2 = 0.154 | 0.254
x2 = 0.203 | 0.269
x2 = 0.254 | 0.279
x2 = 0.301 | 0.283
x2 = 0.353 | 0.282
x2 = 0.402 | 0.277
x2 = 0.451 | 0.27
x2 = 0.503 | 0.26
x2 = 0.551 | 0.247
x2 = 0.602 | 0.232
x2 = 0.651 | 0.214
x2 = 0.702 | 0.195
x2 = 0.75 | 0.174
x2 = 0.801 | 0.147
x2 = 0.851 | 0.124
x2 = 0.901 | 0.0987
x2 = 0.951 | 0.0717

CCCCCCCC [octane] + CCCO
[1]
Conditions | excess molar enthalpy [kcal/mol]
x2 = 0.027 | 0.202
x2 = 0.053 | 0.254
x2 = 0.103 | 0.31
x2 = 0.15 | 0.337
x2 = 0.208 | 0.359
x2 = 0.254 | 0.367
x2 = 0.301 | 0.37
x2 = 0.352 | 0.367
x2 = 0.401 | 0.363
x2 = 0.452 | 0.351
x2 = 0.5 | 0.337
x2 = 0.55 | 0.32
x2 = 0.602 | 0.297
x2 = 0.652 | 0.268
x2 = 0.702 | 0.242
x2 = 0.752 | 0.214
x2 = 0.802 | 0.181
x2 = 0.852 | 0.148
x2 = 0.901 | 0.106
x2 = 0.95 | 0.0784

CC(C)=O [acetone] + CCCO
[1]
Conditions | excess molar enthalpy [kcal/mol]
x2 = 0.025 | 0.0605
x2 = 0.052 | 0.0968
x2 = 0.101 | 0.154
x2 = 0.151 | 0.202
x2 = 0.2 | 0.245
x2 = 0.252 | 0.282
x2 = 0.302 | 0.311
x2 = 0.351 | 0.334
x2 = 0.401 | 0.349
x2 = 0.451 | 0.359
x2 = 0.501 | 0.363
x2 = 0.551 | 0.361
x2 = 0.601 | 0.354
x2 = 0.651 | 0.34
x2 = 0.702 | 0.32
x2 = 0.752 | 0.295
x2 = 0.8 | 0.265
x2 = 0.851 | 0.223
x2 = 0.901 | 0.168
x2 = 0.952 | 0.112
x2 = 0.975 | 0.0803

CCCO [propan-1-ol]
Conditions | mass density [kg/m3]
[2] | 803.63

CCCCCCCC [octane] + CCO
[1]
Conditions | excess molar enthalpy [kcal/mol]
x2 = 0.028 | 0.206
x2 = 0.054 | 0.257
x2 = 0.104 | 0.303
x2 = 0.151 | 0.326
x2 = 0.201 | 0.343
x2 = 0.252 | 0.355
x2 = 0.304 | 0.357
x2 = 0.352 | 0.355
x2 = 0.404 | 0.348
x2 = 0.452 | 0.337
x2 = 0.502 | 0.323
x2 = 0.551 | 0.307
x2 = 0.601 | 0.288
x2 = 0.651 | 0.267
x2 = 0.7 | 0.245
x2 = 0.752 | 0.217
x2 = 0.801 | 0.191
x2 = 0.85 | 0.16
x2 = 0.901 | 0.121
x2 = 0.95 | 0.0813

C1CCCCC1 [cyclohexane]
Conditions | mass density [kg/m3]
[2] | 778.56

CC(C)=O [acetone] + CCO
[1]
Conditions | excess molar enthalpy [kcal/mol]
x2 = 0.05 | 0.0609
x2 = 0.102 | 0.115
x2 = 0.15 | 0.156
x2 = 0.2 | 0.192
x2 = 0.252 | 0.222
x2 = 0.3 | 0.243
x2 = 0.352 | 0.259
x2 = 0.4 | 0.269
x2 = 0.452 | 0.273
x2 = 0.501 | 0.272
x2 = 0.551 | 0.265
x2 = 0.6 | 0.255
x2 = 0.65 | 0.24
x2 = 0.702 | 0.22
x2 = 0.752 | 0.196
x2 = 0.8 | 0.168
x2 = 0.85 | 0.134
x2 = 0.901 | 0.0937
x2 = 0.95 | 0.0504

CC(C)=O [acetone]
Conditions | mass density [kg/m3]
[2] | 790.31

CCCCCCCC [octane]
Conditions | mass density [kg/m3]
[2] | 702.87

C1CCCCC1 [cyclohexane] + CCO
[1]
Conditions | excess molar enthalpy [kcal/mol]
x2 = 0.032 | 0.106
x2 = 0.054 | 0.132
x2 = 0.102 | 0.169
x2 = 0.151 | 0.192
x2 = 0.202 | 0.207
x2 = 0.251 | 0.217
x2 = 0.3 | 0.223
x2 = 0.351 | 0.226
x2 = 0.401 | 0.226
x2 = 0.452 | 0.223
x2 = 0.5 | 0.217
x2 = 0.551 | 0.209
x2 = 0.601 | 0.198
x2 = 0.65 | 0.185
x2 = 0.707 | 0.165
x2 = 0.75 | 0.15
x2 = 0.802 | 0.127
x2 = 0.851 | 0.101
x2 = 0.901 | 0.0722
x2 = 0.951 | 0.038

CCCCCCC [heptane]
Conditions | mass density [kg/m3]
[2] | 683.91

CCO [ethanol]
Conditions | mass density [kg/m3]
[2] | 789.29
